Calls of active or inactive are those of the source. No cut-off for these calls is given here.
Legend:
[1] = target: T1, Cathepsin G (Mus musculus) (UniProt P28293); experiment: Induction of Cathepsin G degradation in C57BL/6 mouse bone marrow cells assessed as residual activity at 10 uM incubated for 48 hrs by Western blot analysis relative to control; assay type: cell-based; settings: Bone marrow cell
T1 sequence (whole entry): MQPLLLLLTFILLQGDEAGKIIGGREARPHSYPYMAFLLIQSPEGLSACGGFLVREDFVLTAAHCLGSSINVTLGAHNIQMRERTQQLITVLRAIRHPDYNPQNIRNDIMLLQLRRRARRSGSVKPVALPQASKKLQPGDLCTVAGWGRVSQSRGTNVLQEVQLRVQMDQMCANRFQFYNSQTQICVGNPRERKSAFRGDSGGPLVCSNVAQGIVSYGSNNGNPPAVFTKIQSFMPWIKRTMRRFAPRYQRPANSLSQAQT

[2] = target: T2, Dipeptidyl peptidase 1 (Mus musculus) (UniProt P97821); experiment: In vivo inhibition of Cathepsin C in C57BL/6 mouse assessed as reduction in cathepsin C activity in bone marrow at 15 mg/kg, po administered once daily for 6 days by fluorescence based microplate reader relative to control; assay type: functional, organism-based; settings: time 6.0 day
T2 sequence (whole entry): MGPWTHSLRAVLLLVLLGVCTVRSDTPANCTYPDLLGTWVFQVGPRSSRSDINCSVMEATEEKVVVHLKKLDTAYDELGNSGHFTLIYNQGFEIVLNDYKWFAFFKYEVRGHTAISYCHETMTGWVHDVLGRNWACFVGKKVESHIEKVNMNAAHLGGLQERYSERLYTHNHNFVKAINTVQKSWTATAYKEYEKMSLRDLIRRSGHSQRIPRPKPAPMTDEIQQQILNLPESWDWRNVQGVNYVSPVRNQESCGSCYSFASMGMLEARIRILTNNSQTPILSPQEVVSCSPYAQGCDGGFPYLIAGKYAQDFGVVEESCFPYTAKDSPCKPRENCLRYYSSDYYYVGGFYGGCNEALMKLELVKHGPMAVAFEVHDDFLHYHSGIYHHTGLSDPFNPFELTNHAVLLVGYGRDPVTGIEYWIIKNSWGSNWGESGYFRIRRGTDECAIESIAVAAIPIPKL

[3] = Cmax in male Sprague-Dawley rat at 2 mg/kg, iv measured at 5 to 1440 mins by LC-MS/MS analysis; assay type: ADME, organism-based; settings: in vivo, time 5-1440 min
[4] = tested on: RAW264.7; experiment: Anti-inflammatory activity in mouse RAW264.7 cells assessed as inhibition of LPS-induced TNF-alpha production at 5 uM preincubated for 1 hr followed by LPS addition and measured after 24 hrs by ELISA relative to control; assay type: functional; parameters: scale not given: the % may be the effect or the level left; settings: time 25 hrs
[5] = tested on: RAW264.7; experiment: Anti-inflammatory activity in LPS-stimulated mouse RAW264.7 cells assessed as reduction in IL-6 production incubated for 24 hrs by ELISA; assay type: functional, cell-based; settings: dose 0.62-5 µM
[6] = tested on: Mus musculus; experiment: Anti-inflammatory activity in DSS-induced ulcerative colitis male C57BL/6 mouse model assessed as reduction in TNF-alpha expression in colon administered via gavage for 10 days by ELISA; assay type: functional, organism-based; settings: dose 15-60 mg/kg, time 10.0 day
[7] = tested on: Mus musculus; experiment: Anti-inflammatory activity in DSS-induced ulcerative colitis male C57BL/6 mouse model assessed as reduction in inflammatory epithelial destruction in colon at 60 mg/kg administered via gavage for 10 days by H and E staining based analysis; assay type: functional, organism-based; settings: time 10.0 day
[8] = target: T3, Myeloblastin (Homo sapiens) (UniProt P24158); experiment: Inhibition of proteinase 3 in human U-937 cells using aminobenzoyl-Val-Ala-Asp-Cys-Ala-Asp-Gln-ethylenediamine 2,4-dinitrophenyl as substrate at 10 uM incubated for 5 days by fluorescence based microplate reader analysis relative to control; assay type: cell-based; settings: time 5.0 day
T3 sequence (whole entry): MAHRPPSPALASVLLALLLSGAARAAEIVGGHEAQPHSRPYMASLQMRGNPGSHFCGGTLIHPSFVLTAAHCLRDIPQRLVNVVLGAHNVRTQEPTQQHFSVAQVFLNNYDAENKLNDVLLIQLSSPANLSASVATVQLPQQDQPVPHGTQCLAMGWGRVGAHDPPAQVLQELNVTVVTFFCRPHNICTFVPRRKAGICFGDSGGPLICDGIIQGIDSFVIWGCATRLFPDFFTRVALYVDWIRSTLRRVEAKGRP

[9] = tested on: Mus musculus; experiment: Anti-inflammatory activity in DSS-induced ulcerative colitis male C57BL/6 mouse model assessed as reduction in neutrophil elastase level in colon at 15 to 30 mg/kg administered via gavage for 10 days; assay type: functional, organism-based; settings: dose 15-30 mg/kg, time 10.0 day
[10] = tested on: Mus musculus; experiment: Anti-inflammatory activity in DSS-induced ulcerative colitis male C57BL/6 mouse model assessed as reduction in Cathepsin G level in colon at 60 mg/kg administered via gavage for 10 days relative to control; assay type: functional; parameters: scale not given: the % may be the effect or the level left; settings: time 10 day
[11] = target: T4, Neutrophil elastase (Mus musculus) (UniProt Q3UP87); experiment: In vivo inhibition of neutrophil elastase in C57BL/6 mouse assessed as reduction in neutrophil elastase activity in bone marrow administered orally once daily for 6 days by fluorescence based microplate reader; assay type: functional, organism-based; settings: dose 5-30 mg/kg, route po, time 6.0 day
T4 sequence (whole entry): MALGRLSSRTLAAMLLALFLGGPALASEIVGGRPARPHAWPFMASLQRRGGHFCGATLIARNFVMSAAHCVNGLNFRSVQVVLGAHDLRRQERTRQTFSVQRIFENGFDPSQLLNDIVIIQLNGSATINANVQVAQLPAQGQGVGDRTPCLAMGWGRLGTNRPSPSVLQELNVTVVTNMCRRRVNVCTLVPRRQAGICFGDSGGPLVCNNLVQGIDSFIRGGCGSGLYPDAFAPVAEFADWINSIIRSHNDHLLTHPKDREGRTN

For O=C1Nc2c(cccc2-c2ccc(NC3CCOCC3)cc2)/C1=C/c1ccnc2ccccc12, the Activity [1] was 17.3%, the inhibition [2] was less than 50% and the Cmax [3] was 309 ng/mL. The Activity [4] was 83.6%, the Activity [5] was “Dose-dependent-effect” and the Activity [6] was “Active”. For the same molecule, the Activity [7] was “Active”, the inhibition [8] was 33.1% and the Activity [9] was “inactive”. The Activity [10] was 51% and the inhibition [11] was “Dose-dependent-effect”.

From ChEMBL document CHEMBL6092168, “Identification of novel indolinone derivatives as CTSC inhibitors to treat inflammatory bowel disease by modulating inflammatory factors” (Eur J Med Chem, 2024)
